Data on two molecules can be found in paper PMC9996372, “Aim18p and Aim46p are chalcone isomerase domain–containing mitochondrial hemoproteins in Saccharomyces cerevisiae” (The Journal of Biological Chemistry, 2023).

The structures appear in SMILES notation.

One assay concerns the target T1, AtFAP1-Nd45-WT (Arabidopsis thaliana, UniProt Q9M1X2).
T1 construct: gene FAP1
The note with it: 5 μM protein, 50 μM fatty acid, 100 mM Hepes pH 7.5, 150 mM NaCl, 1 h at RT; versus DMSO.

The target in the next assay is T2, AtCHI1-FL-WT (Arabidopsis thaliana, UniProt P41088).
T2 construct: gene CHI1; full-length; N-terminal 8X-His tag
T2 sequence (P41088 1-246): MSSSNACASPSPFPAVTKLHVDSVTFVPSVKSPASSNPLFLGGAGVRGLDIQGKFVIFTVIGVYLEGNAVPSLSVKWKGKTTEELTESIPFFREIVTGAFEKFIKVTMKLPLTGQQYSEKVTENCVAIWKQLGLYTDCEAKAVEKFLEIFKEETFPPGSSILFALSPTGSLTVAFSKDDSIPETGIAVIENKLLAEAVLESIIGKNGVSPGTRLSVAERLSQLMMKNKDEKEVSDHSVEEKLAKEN
In words: chalcone isomerase assay, depletion of A381. The class given is biochemical. The settings on record: 10 nM protein, 200 μM naringenin chalcone, 50 mM Hepes pH 7.5, 150 mM NaCl, 5% EtOH; product naringenin.

T1 sequence (Q9M1X2 46-279): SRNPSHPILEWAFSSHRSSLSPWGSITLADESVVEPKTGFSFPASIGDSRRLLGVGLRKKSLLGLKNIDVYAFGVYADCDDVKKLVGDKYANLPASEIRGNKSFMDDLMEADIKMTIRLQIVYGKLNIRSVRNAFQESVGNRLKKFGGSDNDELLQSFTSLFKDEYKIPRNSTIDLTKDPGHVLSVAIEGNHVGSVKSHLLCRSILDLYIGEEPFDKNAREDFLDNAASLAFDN

On to `CC/C=C\C/C=C\C/C=C\CCCCCCCC(=O)O` [Linolenic acid], for which, at AtFAP1-Nd45-WT, the ΔTm result is “AtFAP1-Nd45-WT was the only protein stabilized by the addition of linolenic acid”.

As for `O=C(/C=C/c1ccc(O)cc1)c1c(O)cc(O)cc1O` [naringenin chalcone], at AtCHI1-FL-WT, the “chalcone isomerase assay, depletion of A381” value was “Only AtCHI-WT rapidly converted naringenin chalcone to naringenin”.
